Point of comparison: `CCCOC(=O)Cc1cc(O)c(C)cc1O`, melting point 101 °C. Against it:
- O=C1c2cc(Br)ccc2COc2ccc(Br)cc21 — higher, 193 to 194 °C
- O=[N+]([O-])c1ccc2nc(Cl)nc(-c3ccccc3Cl)c2c1 — higher, 228 °C
- Cc1cc2c(=O)c(C(=O)O)cn(-c3cc(N)c(F)cc3F)c2cc1F — higher, > 280 °C
- CSC(C)(C(=O)O)c1ccc(N2C(=O)c3ccccc3C2=O)cc1 (stereo unspecified) — higher, 202 to 204 °C
- O=C(O)c1cn(-c2ccc(F)cc2)c2c(F)c(N3CC4=C(CNC4)C3)c(F)cc2c1=O — higher, 195 to 198 °C
- O=C(NCCSCc1cccc(Cl)c1)c1c(C(F)(F)F)cccc1C(F)(F)F — lower, 93 to 94 °C
- CCN1C(=O)C(=C2C=C(N3CCCC3)CC(C)(C)C2)C(=O)N(CC)C1=S — higher, 226 to 227 °C
- Cc1cnc2c(c1)COP(=S)(c1ccccc1)O2 (stereo unspecified) — lower, 97 to 98 °C
- COC(=O)c1cc2c(OC(C)C)cccc2o1 — lower, 43 to 45 °C
- O=C(c1ccccc1)N1CCC2OC2C1 (stereo unspecified) — higher, 212 to 213 °C
- COc1cc2c(cc1OC)S(=O)(=O)CCC(C(=O)N1CCN(C(=O)c3cc(OC)c(OC)c(OC)c3)CC1)=C2 — higher, 226 to 229 °C
- COCCN1CCN(c2cccc(-c3nc4cc(OC)cc(OC)c4c(=O)[nH]3)n2)CC1 — not separable, 99 to 101 °C
- C=CCc1c(N)ccc2c(=O)cc(C(=O)OCC)oc12 — higher, 142 to 143 °C
- O=C(N[C@@H](Cc1ccccc1)C(=O)CSCc1ccco1)OCc1ccccc1 — lower, 64 °C
- O=c1nc(-c2cccc(-c3ccco3)n2)sc2ccccc12 — higher, 218 °C
- C=CCN1C(=O)N(Cc2c(C)c(CN3C(=O)N(CC=C)C(=O)C3(C)C)c(C)c(CN3C(=O)N(CC=C)C(=O)C3(C)C)c2C)C(C)(C)C1=O — higher, 150 to 155 °C
- COc1ccc(C(C)c2cc(O)ccc2OC)cc1 (stereo unspecified) — lower, 81 to 83 °C
- CON(C)S(=O)(=O)c1ccccc1S(=O)(=O)NC(=O)n1nc(OCC(F)(F)F)n(C)c1=O — higher, 183 °C
- Cn1ncnc1COc1nn2c(-c3ccoc3)nncc2c1-c1ccccc1F — higher, 148 °C
- C/C(Cl)=C/CCC(=O)C=P(c1ccccc1)(c1ccccc1)c1ccccc1 — higher, 109 to 113 °C
- Cc1nc(N2CCN(CC3CC3)C2=O)sc1-c1cc[nH]n1 — higher, 169 to 171 °C
- Cc1cc(C)n(-c2nc(Nc3ccccc3Cl)c3ccccc3n2)n1 — higher, 210 to 217 °C
- N#CC(N)=C(C#N)N=Cc1cnn(-c2c(Cl)cc(OC(F)(F)F)cc2Cl)n1 — higher, 199 to 201 °C
- COc1cc(OC)c(C(=O)c2cc(Cl)ccc2NC(C)=O)c(OC)c1 — higher, 159 to 160 °C
- CN1C(=O)c2ccccc2NC(=O)C1c1ccccc1 (stereo unspecified) — higher, 242 to 244 °C
- CCCc1nc(C(O)CCC)c(C)[nH]1 (stereo unspecified) — higher, 169 to 171 °C
- CC(C)Oc1n[nH]cc1C(=O)NCc1ccc(Cl)cc1Cl — higher, 185 to 186 °C
- CCOC(=O)COc1cc(-c2ccc(C)cc2)nc2cccc(C(F)(F)F)c12 — higher, 134 °C
- CC1Cc2cc3c(cc2C(c2ccc([N+](=O)[O-])cc2)=NN1C(=O)CBr)OCO3 (stereo unspecified) — higher, 183 to 186 °C
- CCCc1c(OCC(O)COc2ccc3ccc(C(=O)O)cc3c2CCC)ccc(C(C)=O)c1O (stereo unspecified) — higher, 125 to 126 °C
- CC(CCO)NC1=NS(=O)(=O)c2sc(Cl)cc2N1 (stereo unspecified) — higher, 199 to 203 °C
- CCC(CC)Nc1nc(N)nc(C(C)(C)F)n1 — higher, 104 to 106 °C
- O=C(c1cc2c(Br)cccc2o1)c1cc2c(Br)cccc2o1 — higher, 223 to 225 °C
- COc1cc(Oc2cccc(C(F)(F)F)c2)nc(C(=O)NC=C(Cl)Cl)c1 — higher, 123 to 125 °C
- Cc1nc(C)c(I)nc1C — lower, 59 to 63 °C
- COc1ccc(-c2nc(C)c(-c3cccnc3)n2O)cc1OC — higher, 131 to 135 °C
- CC(C)(C)OC(=O)NCCC(=O)NCCC(=O)OCc1ccccc1 — lower, 84 to 85 °C
- Cc1cc(OCc2oc(-c3ccc(C(F)(F)F)cc3)nc2C)ccc1CCC(=O)O — higher, 113 to 115 °C
- COc1ccc(C2(C=O)CCC(=O)CC2)cc1OC1CCCC1 — lower, 55 to 57 °C
- O=c1c2c(Cc3ccc(F)cc3)n[nH]c2c2cccnc2n1-c1cccc(OC(F)(F)F)c1 — higher, 226 to 228 °C
- CN(C)c1n[nH]c(-c2ccc(Cl)cc2)c1CC(=O)O — higher, 157 to 168 °C
- O=[N+]([O-])c1cccc(-c2cc3ncnc(Nc4ccc5[nH]ccc5c4)c3s2)c1 — higher, 175 to 183 °C
- COC(=O)NN(C(=O)Cl)c1ccccc1OCCSC — lower, 55 to 57 °C
- CC(C(=O)O)c1cc(=O)n(Cc2ccc(Cl)cc2)c2ccc(Cl)cc12 (stereo unspecified) — higher, 192 to 194 °C
- COc1cc(C(N)=O)c([N+](=O)[O-])cc1OC — higher, 197 °C
- C[C@]12CCC(=O)C=C1CC[C@@H]1[C@@H]2CC[C@]2(C(F)F)C(=O)CC[C@@H]12 — higher, 183 to 184 °C
- COc1cccc(C(=O)N2CCc3cc(OCc4ccccc4)c(OC)cc3C2=O)c1 — higher, 141 to 143 °C
- COCOc1cc(COc2nn(Cc3ccccc3)cc2C=O)ccc1OCc1nc(-c2ccco2)oc1C — higher, 141 to 142 °C
- CCCCCCCCCCCCOc1ccc2cc(C(C)C(=O)O)ccc2c1 (stereo unspecified) — lower, 96 to 97 °C
- CCOC(=O)C=Cc1cncc(OCc2ccccc2)c1 — lower, 76 to 77 °C
- c1cc(N2CCCC2)ccc1CC12CC3CC(CC(C3)C1)C2 — higher, 147 to 148 °C
- C#Cc1cccc(OCC2=CC=C(CO)SS2)c1 — lower, 70.5 to 71.5 °C
- Cc1cc(C(=O)NC2CC2)ccc1N1CCN(Cc2cc(C)c3c(c2)NC(=O)C(C)O3)CC1 (stereo unspecified) — higher, 241 to 242 °C
- c1ccc2c(c1)ccc1cnsc12 — lower, 52 °C
- CCC=C(c1ccccc1N1CCCC(C)(C)C1)C(C(N)=O)c1ccc(C(=O)OCC)cc1 (stereo unspecified) — higher, 113 to 116 °C
- COc1ccc(C(=O)N2CCCC2=O)cc1OC(=O)c1ccccc1 — lower, 90.5 to 91 °C
- COc1cc(N)c(Cl)cc1C(=O)N[C@H]1CCN(CCCN2C(=O)c3ccccc3C2=O)C[C@H]1OC (relative stereo) — higher, 208 °C
- Cc1cccc(C)c1C(=O)c1sc(Nc2ccc(N3CCOCC3)cc2)nc1N — higher, 221 to 223 °C
- CN(C)c1cccc(-c2cnc3[nH]cc(C(=O)C(C)(C)C)c3n2)c1 — higher, 223 to 228 °C
- N#CC1=C(c2ccc3ccccc3c2)Nc2n[nH]cc2C1c1cccc2nonc12 (stereo unspecified) — higher, 228 °C
- Cn1c(=O)c2c(ncn2CCN2CCC(c3c[nH]c4ccc(O)cc34)CC2)n(C)c1=O — higher, 232 °C
- COC(=O)c1cccc(OS(N)(=O)=O)c1 — higher, 145 to 146 °C
- COC(=O)c1cc(S(C)(=O)=O)nc(Cl)n1 — higher, 127 to 129 °C
- CN(C)Cc1c(Cl)nc(-c2ccccc2)c2ccccc12 — lower, 75 to 77 °C
- CCCCCc1ccc(C2c3c(C)c(N)c(C)c(C)c3OC2(C)C)cc1 (stereo unspecified) — lower, 67 to 68 °C
- CC(C)C1CC(=O)C(C(=O)NS(=O)(=O)c2ccc(Cl)cc2)C(=O)C1 (stereo unspecified) — not separable, 100 to 102 °C
- CC=Cn1c(C)c(C)c2cnnc(OCc3ccc(F)cc3)c21 — higher, 114 to 115 °C
- COC(=O)c1cc(F)c(C)c(N)c1Cl — lower, 51 to 52 °C
- CC(C)NC(=O)c1c(C(=O)O)ccc(Cl)c1Cl — higher, 155 to 156 °C
- CCn1nc(-c2ccccc2)c(C(=O)O)c(Nc2cccnc2)c1=O — higher, 255 to 257 °C
- Oc1ccc(C2COc3c(ccc(O)c3O)C2)cc1 (stereo unspecified) — higher, 225 to 226 °C
- CCOc1cc(C(C)C)c2c(c1)S(=O)(=O)N(CSc1ccccc1)C2=O — higher, 112 °C
- C#CCNC(=O)C(C#N)=C1CC(C)(C)c2cc(OC)c(OC)cc21 — higher, 202 to 205 °C
- CCCCCCCCOc1ccc(-c2ncc(Br)cn2)c(F)c1F — lower, 74.6 °C
- CCc1[nH]n(C2CCCC2)c2nc(Cc3ccccc3OC)nc(=O)c1-2 — higher, 145 to 146 °C
- CC(C)[Si](C(C)C)(C(C)C)C1c2ccccc2-c2ccccc21 — higher, 122 to 123 °C
- CC(=O)NCCCC(=O)c1ccc(Cl)cc1CCC(=O)NCC(=O)O — lower, 88 to 89 °C
- Cc1cc(F)ccc1-c1nc(NCC(F)(F)F)nc2c1ccc(=O)n2-c1ccccc1F — higher, 187 to 188 °C
- N#Cc1cn(-c2c(Cl)cc(C(F)(F)F)cc2Cl)c(N)c1I — higher, 130 to 132 °C
- CCOC(=O)C1=C(C)NC(CN2C(=O)c3ccccc3C2=O)=C(C(=O)OCC)C1c1cccc(Cl)c1 (stereo unspecified) — higher, 135 to 136 °C
- COC(=O)c1ccc2cc(CCCCc3cc4ccc(C(=O)OC)cc4o3)oc2c1 — higher, 130 to 131 °C
- CCOC(=O)C1=C(C)NC(C)=C(C(=O)OC)C1c1ccccc1Cl (stereo unspecified) — higher, 125 to 127 °C
- Cc1ccc(Sc2nc(Cl)cc(OCCC(C)C)n2)cc1 — lower, 83 to 86 °C
- COCc1cc(C(=O)CBr)on1 — lower, 53 to 54 °C
- COc1cccc(N2CCCN(/C(C)=C(/C#N)C(N)=S)CC2)c1 — higher, 129 to 131 °C
- C[C@]12CCC3=C4CCC(=O)C=C4CC[C@H]3[C@@H]1CCC21OCCC1O (stereo partly specified) — higher, 180 °C
- CCOC(=O)c1c(C(Cl)Cl)nc2c(C(F)(F)F)cccc2c1O — lower, 88 °C
- CC1=NC(NC(=O)Nc2cccc(C)c2)C(=O)N(CC(=O)C2CCCC2)c2c(C)cccc21 (stereo unspecified) — higher, 150 to 156 °C
- CCOC(=O)[C@H](Cn1cc(C)c(SC#N)nc1=O)NS(=O)(=O)N(C)C — higher, 158 °C
- Cc1cc(C2(C(F)(F)F)CC(Cl)=NO2)ccc1NC(=O)OC(C)(C)C (stereo unspecified) — lower, 83 to 85 °C
- COc1cc(C(=O)N2CCN(c3cccc(C)c3Cl)CC2)cc(OC)c1OC — higher, 156 to 159 °C
- O=C(NCCO)c1cnc(C(=O)NCCO)s1 — higher, 182 to 184 °C
- O=C(O)Cc1ccccc1OCCn1ccnc1 — higher, 146 to 147 °C
- c1ccc(C2CN=C3NCCN32)cc1 (stereo unspecified) — higher, 167 to 170 °C
- CC(C)(C)OC(=O)CN1C(=O)[C@@H](N)CSc2ccccc21 — lower, 86 to 89 °C
- COc1ccc(OC(Cc2ccc(OCCNC(=O)c3ccc(-c4ccccn4)cc3)cc2)C(=O)O)cc1 (stereo unspecified) — lower, 67.5 to 70 °C
- Cc1cc(-c2c(O)c(=O)c2=O)c2c(C)ccc(C(C)C)cc1-2 — higher, 120 to 123 °C
- COC1(c2ccccc2)OC=C(c2ccc(CCC(=O)O)cc2)C1=O (stereo unspecified) — higher, 117 to 120 °C
- CCc1cc(C(C)=O)c(O)cc1OCCCCCN — lower, 75 to 76 °C
- CC(=O)Oc1cc2c(c3ccccc13)Nc1ccccc1S2=O (stereo unspecified) — higher, 179 to 181 °C

From a melting point compilation (Tetko et al.; mined from patent text by program, amines drawn as free bases though some values may be those of a salt)
